This passage reports MIC results from patent US4143134A, “Halo-phosphonopeptides” (Hoffmann-La Roche Inc., priority 1976, dated 1979).

Assay type in all cases: cell-based
For assay [1], the system named is Escherichia coli NCTC 10418 P.S. Description: in vitro M.I.C. test against Escherichia coli NCTC 10418 P.S. To be noted: NCTC10418, read-out: M.I.C. (minimum inhibitory concentration). The text has this:
(§1) The following Table illustrates the minimum inhibitory concentration (M.I.C.) in μg/ml of a representative peptide derivative provided by this invention, namely (1R)-1-(L-3-fluoroalanylamino)-ethylphosphonic acid, in an in vitro test against various organisms.

Assay [2] has as its system Escherichia coli NCIB 8879 P.S. Description: in vitro M.I.C. test against Escherichia coli NCIB 8879 P.S. To be noted: NCIB8879, read-out: M.I.C. (minimum inhibitory concentration).
Text: as §1

Assay [3] has as its system Klebsiella aerogenes Type 33 Ba. The experiment in a line: in vitro M.I.C. test against Klebsiella aerogenes Type 33 Ba. The note with it: TYPE33BA, read-out: M.I.C. (minimum inhibitory concentration).
Text: as §1

In assay [4] the test system is Klebsiella aerogenes O-G KAl. The experiment in a line: in vitro M.I.C. test against Klebsiella aerogenes O-G KAl. The note with it: read-out: M.I.C. (minimum inhibitory concentration).
Text: as §1

The subject of assay [5] is Escherichia coli C.1.5 P.R. Description: in vitro M.I.C. test against Escherichia coli C.1.5 P.R. To be noted: read-out: M.I.C. (minimum inhibitory concentration).
Text: as §1

Assay [6] relates to Haemophilus influenzae NCTC 4560. Description: in vitro M.I.C. test against Haemophilus influenzae NCTC 4560. To be noted: NCTC4560, read-out: M.I.C. (minimum inhibitory concentration).
Text: as §1

Values after ≈ are worked out from the molar mass of the structure shown.

As for `C[C@H](NC(=O)[C@@H](N)CF)P(=O)(O)O` [(1R)-1-(L-3-fluoroalanylamino)-ethylphosphonic acid], the MIC in assay [1] worked out at 0.25 µg/mL (≈ 1.17 µM); in assay [2] it was 0.5 µg/mL (≈ 2.33 µM); in assay [3], 1 µg/mL (≈ 4.67 µM); in assay [4], 4 µg/mL (≈ 18.7 µM); in assay [5] it was 4 µg/mL (≈ 18.7 µM); in assay [6] it was 8 µg/mL (≈ 37.4 µM).
